From patent US20100087474A1, “MATERIALS AND METHODS FOR ENHANCED DEGRADATION OF MUTANT PROTEINS ASSOCIATED WITH HUMAN DISEASE” (UNIVERSITY OF FLORIDA, priority 2005, published 2010)
“And” between values parts separate entries of the source, which are not always exact repeats. Equal values may be shown once. “Also recorded” adds a separate entry of the source. Residues, ends and D or L forms follow the SMILES beside them. *: point of attachment. Cbz = O=C(OCc1ccccc1)*

Columns and labels:
[1] = test system: P23H opsin; assay: P23H opsin degradation in HEK293 stable cells (immunoblot); format: cell-based, human; settings: for effect of inhibitor on FTI-277 induced P23H opsin degradation: in the presence of FTI-277, 3MA 10 mM, MG132 25 μM; for effect of inhibitor on P23H opsin degradation: inhibitor added at autophagy induction, amino acid depleted cells; for loss of P23H opsin: after 12 hours, FTI-277 50 μM, rapamycin 50 nM
Experimental: Wild-type and P23H opsin were expressed in HEK293 tetracycline-inducible stable cell lines. The cells were grown in Dulbecco's modified Eagle's medium containing high glucose (Invitrogen, San Diego, Calif.) supplemented with 10% heat inactivated fetal bovine serum (Sigma) with antibiotic-antimycotic solution (Invitrogen, San Diego, Calif.), blasticidin (Cayla, Toulouse, France), zeocin (Invitrogen, San Diego, Calif.) at 37 C in the presence of 5.0% CO2. Opsin synthesis in cells was induced by addition of tetracycline (1 μg/ml). Baby hamster kidney (BHK) cell lines stably expressing the wild type and ΔF508 CFTR variant with a C-terminal HA epitope (CFTR-HA) (See Sharma et al., J. Cell Biol. 2004 164(6):923-33). The cells were grown in DMEM/F12 (Invitrogen, San Diego, Calif.) 1:1 ratio with 10% FBS at 37° C. in the presence of 5.0% CO2.
Autophagy was induced in cells by incubating them in amino-acid depleted medium or treating them with rapamycin ([…]), or both. Cells were incubated under autophagy inducing conditions for two, six, or twelve hours. At the indicated time point the cells were lysed in 1% n-dodecyl-β-maltoside (DM) (Anatrace, Maumee, Ohio) in the presence of protease inhibitors (complete protease inhibitor mixture tablets (Roche Molecular Biochemicals, Mannheim, Germany) for 1 hour at 4° C. The cells were centrifuged at 36,000 rpm in a Beckman ultracentrifuge for 30 minutes at 4 C. The lysate was collected and immunoblotting was performed.
(§1) Cell lysates were electrophoresed on 10% SDS polyacrylamide gels and transferred onto Immobilon-NC (Millipore, Billerica, Mass.) nitrocellulose membranes. The membranes were incubated at room temperature for 1 hour with a commercially available blocking buffer (Li-Cor, Lincoln, Nebr.) diluted 1:1 in PBST (PBS with 0.1% triton X-100, pH 7.4), followed by a 1 hour incubation with the indicated primary antibody. The blots were washed three times for 5 minutes each in PBST, and incubated for 1 hour with a true near infrared dye, IRDye800-conjugated secondary antibody (Rockland Immunochemicals Inc., Gilbertsville, Pa.). Finally the membranes were again washed three times with PBST and scanned in an Odyssey infrared scanner (Li-Cor, Lincoln, Nebr.). Quantitations on immunoblots were performed using Licor software. Primary antibodies included antibodies to opsin, HA-tag (Covance Princeton, N.J.), mTOR, phosphorylated mTOR (Upstate Charlottesville, Va.), calnexin, hsp70 (Stressgen, Victoria, BC, CA), Bip (BD PharMingen, San Diego, Calif.) to tubulin (Sigma Chemical, St. Louis, Mo.), 1D4 (University of British Columbia), Akt, phospho-Akt, S6K, phospho-S6K, MAPK and phosphor-MAPK (Cell Signaling Technology, Beverly, Mass.).
Following tetracycline wash off, cells were treated for 0, 2, 6 and 12 hours then lysed in phosphate buffer containing 1% n-dodecyl-β-maltoside (DM) (Anatrace) in the presence of protease inhibitors (complete protease inhibitor mixture tablets; Roche Molecular Biochemicals) for 1 hour at 4° C. As a positive control for autophagy, cells were treated with rapamycin (50 nM), following tetracycline wash off. The lysates were centrifuged at 36,000 rpm in a Beckman ultracentrifuge for 10 min at 4C. The supernatant was collected and immunoblotting was performed. 3-methyladenine (3MA), which blocks autophagy (10 mM) (Sigma Chemical (St. Louis, Mo.)) and MG132 (25 μM) (Sigma Chemical (St. Louis, Mo.)) were also used.

[2] = test system: S6 kinase; assay: S6 kinase phosphorylation in HEK293 cells (immunoblot); format: cell-based, human; settings: within two hours of treatment
Experimental: as §1
(§2) FTI-277 (Calbiochem) was used at 50 μM. […]

[3] = test system: Rheb; settings: Basso et al., 2005; cited from earlier work
[4] = test system: HuH7 hepatoma cells stably expressing GFP-LC3; assay: GFP-LC3 localization in HuH7 hepatoma cells (confocal); format: cell-based; settings: FTI-277 treated versus fed cells
Experimental: HuH7 hepatoma cells were stably transfected with pGFP-LC3 (Ogawa et al., Science 307(5710): 727-731, 2005) using a lipid optimization kit, the PerFect lipid (pFx-3), purchased from Invitrogen (San Diego, Calif.). PFX-3 (Invitrogen) according to manufacturer's protocols. Those colonies that grew in the presence of 0.5 mg/ml G418 were then isolated, amplified, and screened for GFP-LC3 expression by fluorescence microscopy and Western blotting.
(§3) Staining with lysotracker (Molecular Probes) was also performed on live cells at 37° C. Confocal imaging was performed using the Leica TCS SP2 AOBS Spectral Confocal Microscope at 63× magnification.

[5] = test system: MAPK; assay: MAPK phosphorylation in HEK293 cells (immunoblot); format: cell-based, human; settings: FTI-277 treatment
Experimental: as §1, §2

[6] = test system: Bip, calnexin, calreticulin, Hsp70, Hsp90; assay: UPR/HSR chaperone levels in opsin-expressing HEK293 cells (immunoblot); format: cell-based, human; settings: FTI-277 treatment, time-dependent
Experimental: as §1, §2

[7] = test system: Akt; assay: Akt phosphorylation in HEK293 cells (immunoblot); format: cell-based, human; settings: FTI-277 treatment
Experimental: as §1, §2

[8] = test system: HEK293 cells expressing P23H opsin; assay: immunocolocalization of autophagosome markers Atg7 and Atg8 with P23H opsin; format: cell-based, human; settings: FTI-277 treatment versus untreated cells in complete medium
Experimental: Cells were grown on glass coverslips and fixed in 4% paraformaldehyde. Following quenching with 50 mM NH4Cl, cells were washed with PBS and incubated for 1 hour with the indicated primary antibody at room temperature. Cells were washed five times in PBS and incubated with a secondary antibody (TRITC- and FITC-conjugate) for 1 hour. The cells were washed again and mounted with Vectashield containing DAPI. Primary antibodies included antibodies to LC3, LAMP-1, Atg7 (Dr Dunn), opsin, Atg7^20, Atg8 and HA-tag. The cells were then observed using a Zeiss Axiophot microscope.
as §3

[9] = test system: HEK293 cells expressing P23H opsin; assay: electron microscopy morphometric quantification of autophagic vacuoles (AVs); format: cell-based, human; settings: FTI-277 for two hours and six hours
Experimental: P23H opsin-expressing cells were grown on ACLAR sheets in a 24-well plate. […] Following a wash with PBS, cells were fixed with 2% paraformaldehyde, 2% glutaraldehyde in 0.1M sodium cacodylate buffer, pH 7.4 for 30 minutes at 4° C. and processed for CMPase cytochemistry as previously described (31). Morphometric quantification of AVs was done on 20 electron micrographs per condition using Image J software T-test analysis was performed and P value (two-tailed significance) under or equal to 0.05 was considered significant (marked with asterisk).

[10] = test system: HEK293 cells expressing P23H opsin; assay: lysotracker staining of lysosomal vacuoles; format: cell-based, human
Experimental: as §3

[11] = test system: mTOR; assay: mTOR phosphorylation in opsin-expressing HEK293 cells (immunoblot); format: cell-based, human
Experimental: Cell lysates were electrophoresed on 10% SDS polyacrylamide gels and transferred onto Immobilon-NC (Millipore, Billerica, Mass.) nitrocellulose membranes. The membranes were incubated at room temperature for 1 hour with a commercially available blocking buffer (Li-Cor, Lincoln, Nebr.) diluted 1:1 in PBST (PBS with 0.1% triton X-100, pH 7.4), followed by a 1 hour incubation with the indicated primary antibody. The blots were washed three times for 5 minutes each in PBST, and incubated for 1 hour with a true near infrared dye, IRDye800-conjugated secondary antibody (Rockland Immunochemicals Inc., Gilbertsville, Pa.). Finally the membranes were again washed three times with PBST and scanned in an Odyssey infrared scanner (Li-Cor, Lincoln, Nebr.). Quantitations on immunoblots were performed using Licor software. […]

[12] = test system: P23H heterozygous mutant mice; assay: ERG retinal function in P23H mouse model of retinitis pigmentosa; format: in vivo; settings: rapamycin once per week from twenty-one days old; course of three months
Experimental: Mice expressing the P23H opsin protein are described by Liu et al., Journal of Cell Science 110, 2589-2597 (1997).
Heterozygous P23H transgenic mice were treated once per week with rapamycin beginning when the mice were twenty-one days old.
(§4) The mice are dark adapted twenty-four hours prior to ERG. A mix of ketamine and xylazine was used to anesthestize mice. Dosage was determined by weight. Mouse eyes were numbed with proparacaine drops and dilated with Ak-dilate. The mouse was then placed on the machine (UTAS-E 2000) a ground electrode was inserted into the hind limb, another electrode was inserted into the neck, and a pair of electrode was used to record the ERG from each eye. After getting a baseline reading, the ERG was measured at 20, 10 and 0 dB. Monthly ERG's were measured and the B-wave amplitude was determined.

[13] = test system: Abcr heterozygous mutant mice; assay: ERG retinal function in mouse model of macular degeneration; format: in vivo; settings: rapamycin 20 mg/kg once per week intraperitoneal from four months old
Experimental: abcr+/− mice are described by Mata et al., Investigative Opthalmology and Visual Science. 2001; 42:1685-1690.
abcr+/− mice were treated with 20 mg/kg of rapamycin once per week beginning when the mice were four months old. The rapamycin was administered by intraperitoneal injection.
as §4

[14] = cited from earlier work

In the case of Cn1cnc(N)c2ncnc1-2 [3-MA, 3-methyladenine], the “effect of inhibitor on FTI-277 induced P23H opsin degradation” value [1] was “prevented degradation of opsin; also recorded: inhibited P23H opsin degradation” and the “effect of inhibitor on P23H opsin degradation” value [1] was “inhibited P23H degradation”.

For CC1=C(/C=C/C(C)=C/C=C/C(C)=C/C=O)C(C)(C)CCC1 [11-cis retinal], the “levels of P23H degradation” value ([1]; 11-cis retinal administered at the time autophagy was induced) was “not altered” and the “P23H protein degradation profile versus wild-type opsin and untreated P23H cells” value ([1]; 11-cis retinal during amino acid depletion) was “intermediate degradation profile”.

In the case of COC(=O)[C@H](CCSC)NC(=O)c1ccc(NC[C@@H](N)CS)cc1-c1ccccc1 [FTI-277, methyl {N-[2-phenyl-4-N[2(R)-amino-3-mercaptopropylamino]benzoyl]}-methionate], the “phosphorylation of S6 kinase” value [2] is given as “dramatically reduced”, the “prenylation of Rheb” value [3] is given as “completely block” and the “degradation of P23H opsin” value ([1]; FTI-277 at 10 μM) is given as “No effect”. The “degradation of P23H opsin” value ([1]; FTI-277 at 50 μM) was “time-dependent degradation”, the “loss of P23H opsin” value [1] was 50% and the “degradation of P23H rhodopsin (Western blot)” value ([1]; fed cells treated with 10 μM or 50 μM FTI277 (FIG. 8)) was “induced the rapid degradation”. The GFP-LC3 localization [4] was “localized to numerous structures consistent with its association with autophagic vacuoles”, the MAPK phosphorylation [5] was “slight increase” and the “levels of calnexin, calreticulin, Hsp70 and Hsp90 (UPR and HSR)” value [6] was “did not affect”. The “stimulation of Akt phosphorylation” value [7] was “unaffected”, the “colocalization of Atg7 and Atg8 with P23H opsin” value [8] was “dramatic increase” and the “increase in the fractional volume of AVs compared to untreated cells” value [9] was 4 to 6 fold and 6 fold. The “lysosomal numbers and size (lysotracker)” value [10] was “increase”, the “dephosphorylation of mTOR” value ([11]; FTI-277 in combination with amino acid and serum starvation) was “further enhanced” and the “phosphorylation of mTor” value ([11]; FTI-277 treatment, time course of twelve hours) was “effectively inhibited”.

With CC(C)C[C@@H](C=O)NC(=O)[C@H](CC(C)C)NC(=O)[C@H](CC(C)C)NC(=O)OCc1ccccc1 [MG132] (Cbz-Leu-Leu-Leu-aldehyde) the “effect of inhibitor on FTI-277 induced P23H opsin degradation” value [1] was “did not interfere” and the “effect of inhibitor on P23H opsin degradation” value [1] was “no effect”.

With CO[C@H]1C[C@@H]2CC[C@@H](C)[C@@](O)(O2)C(=O)C(=O)N2CCCC[C@H]2C(=O)O[C@H]([C@H](C)C[C@@H]2CC[C@@H](O)[C@H](OC)C2)CC(=O)[C@H](C)/C=C(\C)[C@@H](O)[C@@H](OC)C(=O)[C@H](C)C[C@H](C)/C=C/C=C/C=C/1C [rapamycin] the “loss of P23H opsin” value [1] was 70%, the “retinal function (ERG)” value [12] was “rescued retinal function; also recorded: enhances retinal function” and the “retinal function (ERG)” value [13] was “rescues retinal function; also recorded: enhances retinal function”. The “absorption after oral administration” value [14] was “absorbed rapidly and completely”.
